Among the data in patent US20170247336A1 (MERCK SHARP & DOHME CORP., priority 2014, published 2017) are IC50 values, retold here.

Structures are written as SMILES. Structures can show the parent of a compound that is named as a salt.

The target of the assay is T1, human HIF-PHD2 (Homo sapiens, UniProt Q9GZT9).
T1 construct: FLAG-tagged full length PHD2 expressed in and purified from baculovirus-infected Sf9 cells; FLAG; made in house; host or cells: baculovirus-infected Sf9 cells
As to the kind of experiment: HIF-PHD2 inhibition: hydroxylation of HIF-1α peptide, time resolved fluorescence. Format: biochemical. The conditions noted are these: FLAG-tagged full length PHD2; 0.2 μM 2-oxoglutarate, 0.5 μM HIF-1α peptide. As for the experimental part:
To each well of a 384-well plate, 1 μL of test compounds in DMSO (final concentration ranging from 0.3 nM to 10 μM) were added into 20 μl of assay buffer (50 mM Tris pH 7.4/0.01% Tween-20/0.1 mg/ml bovine serum albumin/10 μM ferrous sulfate/1 mM sodium ascorbate/20 μg/ml catalase) containing 0.15 μg/ml FLAG-tagged full length PHD2 expressed in and purified from baculovirus-infected Sf9 cells. After a 5 min preincubation at room temperature, the enzymatic reactions were initiated by the addition of 4 μL of substrates {final concentrations of 0.2 μM 2-oxoglutarate and 0.5 μM HIF-1α peptide biotinyl-DLDLEMLAPYIPMDDDFQL (SEQ ID NO: 1)}. After incubation for 45 minutes at room temperature, the reactions were terminated by the addition of a 25 μL quench/detection mix to a final concentration of 1 mM ortho-phenanthroline, 0.1 mM EDTA, 0.5 nM anti-(His)6 LANCE reagent (Perkin-Elmer Life Sciences), 100 nM AF647-labeled streptavidin (Invitrogen), and 2 μg/ml (His)6-VHL complex {S. Tan Protein Expr. Purif. 21, 224-234 (2001)} and the signals were developed for 30 minutes at room temperature. The ratio of time resolved fluorescence signals at 665 and 620 nm was determined, and percent inhibition was calculated relative to the high control samples (DMSO treated) run in parallel, after background subtraction.

T1 sequence (Q9GZT9 whole entry): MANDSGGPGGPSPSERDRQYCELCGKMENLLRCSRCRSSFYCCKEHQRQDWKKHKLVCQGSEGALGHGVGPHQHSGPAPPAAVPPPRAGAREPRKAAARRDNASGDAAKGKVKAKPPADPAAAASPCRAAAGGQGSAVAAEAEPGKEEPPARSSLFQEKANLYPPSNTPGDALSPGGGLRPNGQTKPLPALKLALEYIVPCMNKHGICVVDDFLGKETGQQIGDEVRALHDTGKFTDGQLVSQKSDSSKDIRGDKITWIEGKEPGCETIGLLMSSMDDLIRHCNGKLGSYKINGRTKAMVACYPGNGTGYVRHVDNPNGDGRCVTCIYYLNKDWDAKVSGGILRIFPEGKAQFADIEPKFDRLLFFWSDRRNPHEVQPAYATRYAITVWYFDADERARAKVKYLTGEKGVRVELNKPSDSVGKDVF

In the case of `CC(NC(=O)c1cnc(C(=O)NCCC(=O)O)nc1O)c1ccc(Oc2ccccc2)cc1` (stereo not drawn) [Example 46, 3-(4-hydroxy-5-((1-(4-phenoxyphenyl)ethyl)carbamoyl)pyrimidine-2-carboxamido)propanoic acid], the IC50 came to 1 nM.

With `N#Cc1ccc(C(NC(=O)c2cnc(C(=O)NC[C@@H](O)C(=O)O)nc2O)c2ccccc2)cc1` (single isomer, unassigned) [Example 9], the IC50 is 27.2 nM. Take `CC(CNC(=O)c1ncc(C(=O)NC2(c3ccc(-c4cccc5cnccc45)cc3)CC2)c(O)n1)C(=O)O` (single isomer, unassigned) [Example 31, (R) or (S)-2-((2-carboxypropyl)carbamoyl)-6-hydroxy-5-((1-(4-(isoquinolin-5-yl)phenyl)cyclopropyl)carbamoyl)pyrimidin-1-ium formate]: half-maximal inhibition (IC50) was put at 10 nM. The value for `CC(CNC(=O)c1ncc(C(=O)NC(C)(C)c2ccc(-c3ccc(C(F)(F)F)cc3)cc2)c(O)n1)C(=O)O` (single isomer, unassigned) [Example 20, (R) or (S)-3-(4-hydroxy-5-((2-(4′-(trifluoromethyl)-[1,1′-biphenyl]-4-yl)propan-2-yl)carbamoyl)pyrimidine-2-carboxamido)-2-methylpropanoic acid] was 8.1 nM.

For the molecule `CC(CNC(=O)c1ncc(C(=O)NC2(c3ccc(-c4ccc(F)cc4)cc3)CC2)c(O)n1)C(=O)O` (single isomer, unassigned) [Example 32, (R) or (S)-3-(5-((1-(4′-fluoro-[1,1′-biphenyl]-4-yl)cyclopropyl)carbamoyl)-4-hydroxypyrimidine-2-carboxamido)-2-methylpropanoic acid], inhibition was half-maximal at 12 nM (IC50). For `N#Cc1ccc(C(NC(=O)c2cnc(C(=O)NC[C@@H](O)C(=O)O)nc2O)c2ccccc2)cc1` (single isomer, unassigned) [Example 8], inhibition was half-maximal at 6.8 nM (IC50). For `COc1ccc([C@H](NC(=O)c2cnc(C(=O)NC[C@@H](O)C(=O)O)nc2O)c2ccccc2)cc1` [Example 12, (R)-2-hydroxy-3-(4-hydroxy-5-(((R)-(4-methoxyphenyl)(phenyl)methyl)carbamoyl)pyrimidine-2-carboxamido)propanoic acid], the IC50 turned out to be 8.7 nM. The molecule `CC(CNC(=O)c1ncc(C(=O)NC(C)(C)c2ccc(-c3ccc(F)cc3)cc2)c(O)n1)C(=O)O` (single isomer, unassigned) [Example 24, (R) or (S)-3-(5-((2-(4′-fluoro-[1,1′-biphenyl]-4-yl)propan-2-yl)carbamoyl)-4-hydroxypyrimidine-2-carboxamido)-2-methylpropanoic acid] gave an IC50 of 4.8 nM. As to `CC(CNC(=O)c1ncc(C(=O)NC2(c3ccc(-c4ccc(Cl)cc4)cc3)CC2)c(O)n1)C(=O)O` (single isomer, unassigned) [Example 30, (R) or (S)-3-(5-((1-(4′-chloro-[1,1′-biphenyl]-4-yl)cyclopropyl)carbamoyl)-4-hydroxypyrimidine-2-carboxamido)-2-methylpropanoic acid], the IC50 turned out to be 13 nM. The value for `COc1ccc(-c2ccc(C(C)(C)NC(=O)c3cnc(C(=O)NCC(C)C(=O)O)nc3O)cn2)cc1` (single isomer, unassigned) [Example 19, (R) or (S)-3-(4-hydroxy-5-((2-(6-(4-methoxyphenyl)pyridin-3-yl)propan-2-yl)carbamoyl)pyrimidine-2-carboxamido)-2-methylpropanoic acid] was 2.8 nM; that for `CC(CNC(=O)c1ncc(C(=O)NC(C)(C)c2ccc(-c3cc[nH]n3)cc2)c(O)n1)C(=O)O` (single isomer, unassigned) [Example 27, (R) or (S)-5-((2-(4-(1H-pyrazol-3-yl)phenyl)propan-2-yl)carbamoyl)-2-((2-carboxypropyl)carbamoyl)-6-hydroxypyrimidin-1-ium formate] was 5.8 nM. For the molecule `COc1ccc(C(NC(=O)c2cnc(C(=O)NCCC(=O)O)nc2O)c2ccc(OC)cc2)cc1` [Example 48, 3-(5-((bis(4-methoxyphenyl)methyl)carbamoyl)-4-hydroxypyrimidine-2-carboxamido)propanoic acid], the IC50 came out at 0.7 nM. Turning to `CC(CNC(=O)c1ncc(C(=O)NC(C)(C)c2ccc(-c3ccc(OC(F)(F)F)cc3)cc2)c(O)n1)C(=O)O` (single isomer, unassigned) [Example 25, (R) or (S)-3-(4-hydroxy-5-((2-(4′-(trifluoromethoxy)-[1,1′-biphenyl]-4-yl)propan-2-yl)carbamoyl)pyrimidine-2-carboxamido)-2-methylpropanoic acid], the IC50 was 13 nM.

In turn, `COc1ccc([C@@H](NC(=O)c2cnc(C(=O)NCCC(=O)O)nc2O)c2ccc(Cl)cc2)cc1` [Example 35, (R)-3-(5-(((4-chlorophenyl)(4-methoxyphenyl)methyl)carbamoyl)-4-hydroxypyrimidine-2-carboxamido)propanoic acid] gave an IC50 of 0.9 nM. For `CC(CNC(=O)c1ncc(C(=O)NC(C)(C)c2ccc(-c3cccnc3)cc2)c(O)n1)C(=O)O` (single isomer, unassigned) [Example 22, (R) or (S)-2-((2-carboxypropyl)carbamoyl)-6-hydroxy-5-((2-(4-(pyridin-3-yl)phenyl)propan-2-yl)carbamoyl)pyrimidin-1-ium formate], the IC50 is 3 nM.

As to `CC(CNC(=O)c1ncc(C(=O)NC(c2ccc(Cl)cc2)c2ccc(Cl)cc2)c(O)n1)C(=O)O` (stereo not drawn) [Example 13], the IC50 came to 4.88 nM.

With `COc1ccc(C(NC(=O)c2cnc(C(=O)NCC(C)C(=O)O)nc2O)c2ccc(OC)cc2)cc1` (single isomer, unassigned) [Example 18, (R) or (S)-3-(5-((bis(4-methoxyphenyl)methyl)carbamoyl)-4-hydroxypyrimidine-2-carboxamido)-2-methylpropanoic acid], the IC50 was 15 nM.

For `COc1ccc(-c2ccc(C(C)(C)NC(=O)c3cnc(C(=O)NCC(C)C(=O)O)nc3O)cc2)cn1` (single isomer, unassigned) [Example 26, (R) or (S)-2-((2-carboxypropyl)carbamoyl)-6-hydroxy-5-((2-(4-(6-methoxypyridin-3-yl)phenyl)propan-2-yl)carbamoyl)pyrimidin-1-ium chloride], the IC50 is 3.4 nM. As to `O=C(O)CCNC(=O)c1ncc(C(=O)NC(c2ccc(Cl)cc2)c2ccc(Cl)cc2)c(O)n1` [Example 42, 3-(5-((bis(4-chlorophenyl)methyl)carbamoyl)-4-hydroxypyrimidine-2-carboxamido)propanoic acid], the IC50 came to 0.5 nM. The value for `O=C(NCC(O)C(=O)O)c1ncc(C(=O)NC(c2ccccc2)c2ccccc2)c(O)n1` (stereo not drawn) [Example 5, 3-(5-(benzhydrylcarbamoyl)-4-hydroxypyrimidine-2-carboxamido)-2-hydroxypropanoic acid] was 0.9 nM; that for `COc1ccc(C(NC(=O)c2cnc(C(=O)NCCC(=O)O)nc2O)c2ccc(OC)nc2)cn1` [Example 41, 3-(5-((bis(6-methoxypyridin-3-yl)methyl)carbamoyl)-4-hydroxypyrimidine-2-carboxamido)propanoic acid] was 0.8 nM. For `CC(C)(NC(=O)c1cnc(C(=O)NC[C@@H](O)C(=O)O)nc1O)c1ccc(C(F)(F)F)cc1` [Example 11, (R)-2-hydroxy-3-(4-hydroxy-5-((2-(4-(trifluoromethyl)phenyl)propan-2-yl)carbamoyl)pyrimidine-2-carboxamido)propanoic acid] the value was 1.5 nM; for `CC(CNC(=O)c1ncc(C(=O)NC(C)(C)c2ccc(-c3cccc4cnccc34)cc2)c(O)n1)C(=O)O` (single isomer, unassigned) [Example 21, (R) or (S)-2-((2-carboxypropyl)carbamoyl)-6-hydroxy-5-((2-(4-(isoquinolin-5-yl)phenyl)propan-2-yl)carbamoyl)pyrimidin-1-ium formate], 4.8 nM; for `O=C(O)CCNC(=O)c1ncc(C(=O)NC(c2ccc(Br)cc2)C(F)(F)F)c(O)n1` (stereo not drawn) [Example 47, 3-(5-((1-(4-bromophenyl)-2,2,2-trifluoroethyl)carbamoyl)-4-hydroxypyrimidine-2-carboxamido)propanoic acid], 1.1 nM. As to `O=C(O)CCNC(=O)c1ncc(C(=O)NC(c2ccc(Cl)cc2)c2ccc(C(F)(F)F)cc2)c(O)n1` (stereo not drawn) [Example 40, 3-(5-(((4-chlorophenyl)(4-(trifluoromethyl)phenyl)methyl)carbamoyl)-4-hydroxypyrimidine-2-carboxamido)propanoic acid], the IC50 was 0.9 nM. Consider `O=C(O)CCNC(=O)c1ncc(C(=O)NC(c2ccccc2)c2ccc(C(F)(F)F)cc2)c(O)n1` (stereo not drawn) [Example 49, 3-(4-hydroxy-5-((phenyl(4-(trifluoromethyl)phenyl)methyl)carbamoyl)pyrimidine-2-carboxamido)propanoic acid], for which the IC50 stood at 1 nM. Consider `COc1ccc(-c2ccc(C3(NC(=O)c4cnc(C(=O)NCC(C)C(=O)O)nc4O)CC3)cc2)cn1` (single isomer, unassigned) [Example 33, (R) or (S)-2-((2-carboxypropyl)carbamoyl)-6-hydroxy-5-((1-(4-(6-methoxypyridin-3-yl)phenyl)cyclopropyl)carbamoyl)pyrimidin-1-ium chloride], for which inhibition was half-maximal at 4.3 nM (IC50).
